# Test results reported in the OPERA property sets (Mansouri et al. 2018).
# Settings: not given
Structure (SMILES),melting point,boiling point,ready biodegradability,log10 Koc (L/kg),log10 vapour pressure (mmHg),log10 biodegradation half-life (days)
Cc1ccc(Nc2ccc(Nc3ccc(C)cc3)c3c2C(=O)c2ccccc2C3=O)cc1,218 °C,–,–,–,–,–
Cc1cc(C)c(O)cc1O,126 °C,276 °C,–,–,–,–
O=C(Oc1cccc2cccnc12)c1ccccc1,119 °C,–,readily biodegradable,–,–,–
CCS(=O)(=O)c1cccnc1S(=O)(=O)NC(=O)Nc1nc(OC)cc(OC)n1,177 °C,–,–,1.71,–,–
CC(=O)Nc1ccc(O)cc1,170 °C,–,readily biodegradable,–,–,–
OC(c1ccccc1)(c1ccccc1)C1CCNCC1,160 °C,–,–,–,–,–
CC(=O)Nc1ccccc1-c1ccccc1,121 °C,355 °C,–,–,–,–
C=CCOc1c(Br)cc(C(C)(C)c2cc(Br)c(OCC=C)c(Br)c2)cc1Br,119 °C,–,–,–,–,–
COc1cc(OC)nc(Sc2cccc(Cl)c2C(=O)O)n1,150 °C,–,–,–,–,–
ON=C(C(=NO)c1ccccc1)c1ccccc1,240 °C,–,–,–,–,–
O=C(O)c1c(Cl)c(Cl)c(Cl)c(Cl)c1C(O)=Nc1cccc(Cl)c1Cl,198 °C,–,–,–,–,–
NC1=C(Cl)C(=O)c2ccccc2C1=O,199 °C,–,–,–,-6.35,–
CCOC(=O)C(F)(F)C(F)(F)F,75.5 °C,–,–,–,–,–
CCCCCCCCCCCCCCCCCC(=O)CCCCCCCCCCCCCCCCC,89 °C,–,–,–,–,–
COC(=O)CCCCCCCCC(=O)OC,38 °C,–,–,–,–,–
CCC(C)OC=O (configuration not stated),–,97 °C,–,–,–,–
O=[N+]([O-])c1ccc(-c2ccccc2[N+](=O)[O-])cc1,93.5 °C,–,–,–,–,–
CC(=O)CCC(=O)O,33 °C,246 °C,–,–,-2.95,–
COc1cccc(C(C)=O)c1,–,240 °C,–,–,–,–
C=C1C(=O)O[C@@H]2C=C(CO)CCC=C(C)C[C@H](OC(=O)C(=C)[C@@H](O)CO)[C@@H]12,143 °C,–,–,–,–,–
CC1=C(/C=C/C(C)=C/C=C/C(C)=C/C(=O)O)C(C)(C)CCC1,181 °C,–,–,–,–,–
C=CCOC(C)=O,–,104 °C,–,–,1.43,–
CC(C)COC(N)=O,67 °C,207 °C,–,–,–,–

Structure (SMILES),melting point,boiling point,ready biodegradability,log10 Koc (L/kg),log10 vapour pressure (mmHg),log10 biodegradation half-life (days)
CC(=O)Nc1ccc(C)cc1C,129 °C,–,–,–,–,–
CC(C)(O)c1ccccc1,36 °C,202 °C,–,–,–,–
CC(C)(C)N,-72.7 °C,45 °C,not readily biodegradable,–,2.57,–
COc1ccccc1C1CCCCC1,–,268 °C,–,–,–,–
O=C(O)CCCCCCCCCCO,65.5 °C,–,–,–,–,–
FC1(F)C(F)(F)C(F)(F)C(F)(F)C(F)(F)C1(F)F,–,50.6 °C,–,–,2.23,–
C[Si](O)(c1ccccc1)c1ccccc1,167 °C,–,–,–,–,–
ICC(CI)(CI)CI,225 °C,–,–,–,–,–
CC1OC(OCC2OC(Oc3c(-c4ccc(O)cc4)oc4cc(OC5OC(C)C(O)C(O)C5O)cc(O)c4c3=O)C(O)C(O)C2O)C(O)C(O)C1O (configuration not stated),250 °C,–,–,–,–,–
Cc1ccc2c(ccc3ccccc32)c1,58 °C,–,–,–,–,1.36
CCOC(=O)COc1cc(Cl)c(Cl)cc1Cl,64 °C,–,–,–,–,–
CCCCCCOC(=O)CCCCCCCC(=O)OCCCCCC,-8 °C,–,–,–,–,–
CC(C)CN=C=S,–,160 °C,–,–,–,–
Nc1ccc2cc3ccccc3cc2c1,239 °C,–,–,4.45,–,–
COc1ccc(Cl)cc1C(=O)NCCc1ccc(S(=O)(=O)NC(=O)NC2CCCCC2)cc1,169 °C,–,–,–,–,–
OCc1ccc(Cl)cc1,75 °C,235 °C,–,–,–,–
C#CCC1(OC(N)=O)CCCCC1,99 °C,–,–,–,–,–
CC(c1ccccc1)c1ccccc1O (configuration not stated),–,–,not readily biodegradable,–,–,–
O=C(Nc1ccccc1)NC1CCCCCC1,–,–,–,2.37,–,–
Nc1ccc(N=Nc2ccc([N+](=O)[O-])cc2)cc1,215 °C,–,–,–,-9.52,–
CC(=O)C1CCC1,–,138 °C,–,–,–,–
C[C@]12CC[C@H]3[C@@H](CCC4=C(O)C(=O)CC[C@@H]43)[C@@H]1CC[C@@H]2O,189 °C,–,–,–,–,–
Cc1cccc(C(=O)O)c1C,146 °C,–,–,–,–,–

# Same assay, conditions: fish
Structure (SMILES),log10 BCF,log10 biotransformation half-life (days)
Cc1ccc2c(ccc3ccccc32)c1,3.48,–
Clc1ccc(-c2c(Cl)ccc(Cl)c2Cl)c(Cl)c1,–,2.61
